# Measurements: patent publication US20060189546A1, “Compounds for treating autoimmune and demyelinating diseases” (priority 2005, published 2006)
# System: colorectal cancer cell lines (HT29 & HCT116)
# Assay: Microarray gene expression, cells grown with Symadex at the GI50 concentration
# Assay type: cell-based, human
# Excerpt: Two colorectal cancer cell lines (HT29 & HCT116) were chosen for study, whose behavior as rapidly proliferating invasive cells could be generalized to many other such cell types from different tissue origins. The two lines were immortalized colon carcinomas. Their gene expression patterns are known to mimic the behavior of neuro-enteric cells and therefore provide an appropriate simulation of the kinds of regulatory patterns that would be found in cells of similar epithelial or endothelial origin. Cells with these ontological roots are also suitable models for the kinds of autoimmune and inflammatory susceptibilities that are common in tissues of neuroenteric origin, such as those in which inflammatory bowel disease would present itself.
# Frozen cell pellets were lysed in triplicate and total RNA isolated by purification over spin columns (all reagents from Ambion). After QC acceptance for purity, total RNA was converted to cRNA by linear amplification and 10 μg samples were applied to CodeLink Human Whole Genome Bioarrays (GE Healthcare and GenUs Biosystems).
# Arrays were processed in triplicate and comparisons made after robust statistical analysis of replicate variability. […] False discovery rates and representation in standardized gene ontologies/pathways were then determined by filtering the “fold” changes in expression with open access software packages, EASE and GoMiner, and with Pathways Analysis (Ingenuity Systems). Functional annotations were then explored further in the MedMiner literature search environment.
# A listing of these is shown in Table 3, in which the first column data presents the fold change against control, the second column cites the gene symbol, the third column cites the Genbank Accession, and the fourth column provides an abridged description of the gene's function.
smiles,measurement,setting,value
"CCN(CC)CCNc1ccc2ncn3c4ccc(O)cc4c(=O)c1c23 [Symadex™, 5-[[(diethylamino)ethyl]amino]-8-hydroxyimidazo[4,5,1-de]-acridine-6-one]",fold down-regulation of SULT4A1,,~300 fold
same,fold down-regulation of SYNE1,,1500 fold
same,Mean fold change over control: NT5C3,AA188573,−2.08
same,Mean fold change over control: SLC9A7,AA279477,−8.20
same,Mean fold change over control: PPP2R5A,AA496141,−36.93
same,Mean fold change over control: ACYP1,AA664719,−2.07
same,Mean fold change over control: PRLR,AA708864,−25.92
same,Mean fold change over control: UBL4,AA873769,−10.12
same,Mean fold change over control: PPP1R9A,AB033048,−26.54
same,Mean fold change over control: MAP6,AB058781,−12.89
same,Mean fold change over control: ASAH2,AF250847,−2.21
same,Mean fold change over control: MTIF2,AI064964,−59.05
same,Mean fold change over control: NEB,AI079911,−6.89
same,Mean fold change over control: MGAT4A,AI364966,−10.83
same,Mean fold change over control: EIF2AK4,AI630242,−15.24
same,Mean fold change over control: ATP1B4,AI659245,−8.24
same,Mean fold change over control: VAPA,AI671488,−12.46
same,Mean fold change over control: PAFAH1B1,AI674778,−12.85
same,Mean fold change over control: PMPCB,AK090763,−15.36
same,Mean fold change over control: IL1RAP,AK095107,−11.23
same,Mean fold change over control: PFKL,AK098228,−10.55
same,Mean fold change over control: KIF5A,AL118561,−11.04
same,Mean fold change over control: LNX,AL565198,−87.48
same,Mean fold change over control: ACTA2,AL713608,−17.00
same,Mean fold change over control: DHFR,AU127142,−2.95
same,Mean fold change over control: SIN3B,AW051366,−2.93
same,Mean fold change over control: NDUFV3,AW139027,−10.52
same,Mean fold change over control: TSFM,AW603708,−2.11
same,Mean fold change over control: PXN,AW969600,−6.00
same,Mean fold change over control: PTPRG,BC047734,−18.91
same,Mean fold change over control: TRA2A,BF093914,−2.55
same,Mean fold change over control: RPL4,BF308998,−39.17
same,Mean fold change over control: PLXNA3,BF926082,−8.04
same,Mean fold change over control: ITGA9,BF959890,−27.91
same,Mean fold change over control: MT2A,BG505162,−2.09
same,Mean fold change over control: PECAM1,BG739826,−17.53
same,Mean fold change over control: NCF1,BI021745,−33.67
same,Mean fold change over control: FNTA,BI715309,−9.02
same,Mean fold change over control: RB1,BI769614,−84.42
same,Mean fold change over control: ENG,BM665467,−6.35
same,Mean fold change over control: MT1A,BM684446,−16.21
same,Mean fold change over control: RPS3,BM693455,−68.37
same,Mean fold change over control: MAPT,BM714794,−26.53
same,Mean fold change over control: NT5E,BM994339,−17.10
same,Mean fold change over control: MXD3,BQ053282,−2.66
same,Mean fold change over control: RYR3,BU533957,−2.43
same,Mean fold change over control: ZNF145,BU607554,−30.18
same,Mean fold change over control: CASR,BX106711,−11.45
same,Mean fold change over control: EIF4EL3,BX111619,−15.36
same,Mean fold change over control: GNAL,BX116836,−18.16
same,Mean fold change over control: GPR1,CB992712,−11.49
same,Mean fold change over control: OLR1,CD678960,−16.33
same,Mean fold change over control: TMPO,H57815,−2.64
same,Mean fold change over control: ACVRL1,NM_000020,−9.43
same,Mean fold change over control: AGT,NM_000029,−22.71
same,Mean fold change over control: APOA1,NM_000039,−13.15
same,Mean fold change over control: BLM,NM_000057,−2.58
same,Mean fold change over control: COL1A2,NM_000089,−54.48
same,Mean fold change over control: CYP19A1,NM_000103,−20.65
same,Mean fold change over control: FBN1,NM_000138,−13.00
same,Mean fold change over control: GIPR,NM_000164,−19.73
same,Mean fold change over control: GLA,NM_000169,−2.51
same,Mean fold change over control: SPTB,NM_000347,−16.71
same,Mean fold change over control: ITGA2B,NM_000419,−10.64
same,Mean fold change over control: NCF2,NM_000433,−21.83
same,Mean fold change over control: OXCT,NM_000436,−2.68
same,Mean fold change over control: SHOX,NM_000451,−7.34
same,Mean fold change over control: HNF4A,NM_000457,−7.42
same,Mean fold change over control: NR0B1,NM_000475,−15.94
same,Mean fold change over control: TYRP1,NM_000550,−12.47
same,Mean fold change over control: IL13RA2,NM_000640,−9.79
same,Mean fold change over control: ADH1C,NM_000669,−12.02
same,Mean fold change over control: CHRNA5,NM_000745,−2.14
same,Mean fold change over control: DCK,NM_000788,−1.94
same,Mean fold change over control: GABRA3,NM_000808,−10.14
same,Mean fold change over control: PRIM1,NM_000946,−3.47
same,Mean fold change over control: SCNN1G,NM_001039,−14.52
same,Mean fold change over control: SLC6A4,NM_001045,−19.44
same,Mean fold change over control: ADCYAP1,NM_001117,−21.74
same,Mean fold change over control: BIRC5,NM_001168,−1.91
same,Mean fold change over control: PRDM1,NM_001198,−3.78
same,Mean fold change over control: CSE1L,NM_001316,−2.53
same,Mean fold change over control: TADA2L,NM_001488,−2.04
same,Mean fold change over control: HSPB2,NM_001541,−13.76
same,Mean fold change over control: BGN,NM_001711,−12.57
same,Mean fold change over control: CD58,NM_001779,−2.40
same,Mean fold change over control: CDC2,NM_001786,−2.09
same,Mean fold change over control: CDC25C,NM_001790,−2.99
same,Mean fold change over control: CKS1B,NM_001826,−2.38
same,Mean fold change over control: CREM,NM_001881,−2.13
same,Mean fold change over control: DSC3,NM_001941,−89.97
same,Mean fold change over control: DUT,NM_001948,−2.08
same,Mean fold change over control: FBLN1,NM_001996,−17.42
same,Mean fold change over control: FCAR,NM_002000,−11.62
same,Mean fold change over control: H2AFX,NM_002105,−2.31
same,Mean fold change over control: H2AFZ,NM_002106,−2.35
same,Mean fold change over control: HMGB1,NM_002128,−1.97
same,Mean fold change over control: HNRPA2B1,NM_002137,−1.93
same,Mean fold change over control: IL7R,NM_002185,−25.20
same,Mean fold change over control: ITGAE,NM_002208,−2.12
same,Mean fold change over control: KCNJ15,NM_002243,−6.83
same,Mean fold change over control: KRT13,NM_002274,−3.34
same,Mean fold change over control: LTB,NM_002341,−12.57
same,Mean fold change over control: MAD2L1,NM_002358,−3.14
same,Mean fold change over control: MAZ,NM_002383,−1.89
same,Mean fold change over control: NUDT1,NM_002452,−1.89
same,Mean fold change over control: NDUFA6,NM_002490,−2.51
same,Mean fold change over control: NDUFB3,NM_002491,−15.58
same,Mean fold change over control: NFKBIB,NM_002503,−2.01
same,Mean fold change over control: NTHL1,NM_002528,−2.34
same,Mean fold change over control: PAFAH1B2,NM_002572,−2.25
same,Mean fold change over control: PCSK2,NM_002594,−16.89
same,Mean fold change over control: POLE2,NM_002692,−2.62
same,Mean fold change over control: MAPK13,NM_002754,−2.14
same,Mean fold change over control: RAD51,NM_002875,−2.21
same,Mean fold change over control: RFC4,NM_002916,−2.02
same,Mean fold change over control: RPA3,NM_002947,−2.54
same,Mean fold change over control: SFRS3,NM_003017,−2.84
same,Mean fold change over control: ITSN1,NM_003024,−15.06
same,Mean fold change over control: SNAI2,NM_003068,−17.45
same,Mean fold change over control: SRY,NM_003140,−13.79
same,Mean fold change over control: TFAP2A,NM_003220,−11.00
same,Mean fold change over control: TK1,NM_003258,−2.34
same,Mean fold change over control: NR2E1,NM_003269,−54.82
same,Mean fold change over control: TNP1,NM_003284,−36.20
same,Mean fold change over control: TTK,NM_003318,−2.24
same,Mean fold change over control: VRK1,NM_003384,−2.79
same,Mean fold change over control: DEK,NM_003472,−2.36
same,Mean fold change over control: CSRP3,NM_003476,−26.26
same,Mean fold change over control: ZNF282,NM_003575,−31.24
same,Mean fold change over control: FOXN1,NM_003593,−9.60
same,Mean fold change over control: STK6,NM_003600,−1.92
same,Mean fold change over control: SEMA7A,NM_003612,−16.54
same,Mean fold change over control: HAT1,NM_003642,−2.63
same,Mean fold change over control: COPS3,NM_003653,−2.54
same,Mean fold change over control: CAMK1,NM_003656,−1.92
same,Mean fold change over control: IL1RL1,NM_003856,−28.60
